Experimental data taken from article PMC12203697, “Bioactive constituents from the edible seaweed Halymenia hawaiiana (Rhodophyta)” (Pharmaceutical Biology, 2025).
Values after ≈ are worked out from the molar mass of the structure shown. Read-outs that look alike come from different tables or passages of the source.

Columns and labels:
[1] = test system: A549 human lung carcinoma epithelial cells; assay: SRB cytotoxicity assay, A549 cells; details: for Selectivity Index (SI): A549 (cancerous) versus NIH/3T3 (non-cancerous), SRB 72 h; for IC50: Homo sapiens, A549, 72 h, read-out: IC50, cytotoxicity against A549 cells
Experimental: After incubation, cells were fixed with trichloroacetic acid (Cat. No. T4885, Sigma-Aldrich, USA), stained with SRB (Cat. No. S9012, Sigma-Aldrich, USA), and the absorbance was measured at 515 nm. Percent cell death was calculated using the following equation: % Cell death=(ODc−OD0)‐(ODs−OD0)/(ODc−OD0)×100
(§1) OD0 = Optical density of cells before treatment (baseline reading).
ODC = Optical density of untreated control cells after 72 h.
ODS = Optical density of cells treated with the test sample after 72 h.
Non-linear regression analysis was performed using GraphPad Prism to calculate the IC50 value. This value reflects the concentration needed to inhibit cell growth by 50%.
All data are presented as mean ± standard error of the mean (SEM) and were collected from three separate experiments. Statistical analyses were conducted using Student’s t-test or ANOVA, followed by Tukey’s multiple comparisons test. Significance is indicated by *p < 0.05, **p < 0.01, and ***p < 0.001.

[2] = test system: S. aureus CART817; assay: Antibacterial MIC, broth microdilution with resazurin; format: cell-based; details: Staphylococcus aureus; S. aureus CART817, Gram-positive; read-out: MIC
Experimental: (§2) The minimum inhibitory concentrations (MICs) were determined using a two-fold serial dilution method with MHB following the recommendations of the Clinical and Laboratory Standards Institute (CLSI [2012]; Elshikh et al. [2016]). In brief, serial two-fold dilutions of the samples in DMSO were mixed with MHB in a 96-well microplate. Then, 50 µL of bacteria suspension was added to each well, resulting in a final concentration of 1 × 10^4 colony-forming units/well. The plates were incubated at 35–37 °C for 18–24 hr. After incubation, 10 µL of 0.18% resazurin (Cat. No. R7017, Sigma-Aldrich, USA) was added to each well (Elshikh et al. [2016]). The MIC was assessed within 2–3 hr after the addition of resazurin. All antimicrobial assays were performed in triplicate, using vancomycin (Cat. No. SBR00001, Sigma-Aldrich, USA) and gentamicin (Cat. No. G1397, Sigma-Aldrich, USA) as standard controls.

[3] = test system: MRSA HBP10; assay: as above; format: cell-based, Staphylococcus aureus; details: MRSA HBP10, Gram-positive
Source text: (§3) Methicillin-resistant Staphylococcus aureus (MRSA), methicillin-susceptible S. aureus (MSSA), and Gram-negative clinical isolates of bacteria [Escherichia coli (9637) and Serratia marcescens ATCC 13880] were used for this study. […] MSSA HBP10, MSSA LUU7, MSSA R113, S. aureus ONE9, and MSSA POB2 were isolated in Hawaiʻi (Gerken et al. [2021]). Mueller Hinton Broth (MHB, GTIN:00382902979630, Becton, Dickinson and Company, Franklin Lakes, NJ, USA) and Mueller Hinton Agar (MHA, GTIN:00382902252504, Becton, Dickinson and Company, Franklin Lakes, NJ, USA,) were used for bacterial inoculation. MRSA was a pathogen strain causing hospital-acquired infections in 1982. This strain easily acquires resistance to antibiotics, such as vancomycin. MSSA strains isolated from the Island of Hawaiʻi included: Honolʻii Beach Park (HBP10) carry the genes erm(C), aph(3′)-III, and mecA, which provide resistance to macrolide, aminoglycoside, and beta-lactam antibiotics, respectively; Wailuku River (LUU7) which contains the blaZ gene (beta-lactam resistance) (Gerken et al. [2021]). Richardson’s Beach Park (R113) and Onekahakaha (ONE9) which is known for its virulence factors (hlgA, hlgB, hlgC, lukD, and lukE).
as §2

[4] = test system: MRSA POB2; assay: as above; format: cell-based, Staphylococcus aureus; details: Staphylococcus aureus; MRSA POB2, Gram-positive; read-out: MIC
Source text: as §3, §2

[5] = test system: S. aureus NEWMAN; assay: as above; format: cell-based, Staphylococcus aureus; details: S. aureus NEWMAN, Gram-positive
Source text: as §3, §2

[6] = SRB cytotoxicity assay, NIH/3T3 cells; format: cell-based, murine; details: mouse, NIH/3T3 fibroblasts (non-tumorigenic)
Source text: as §1

[7] = Staphylococcus aureus, read-out: MIC

SMILES: Nc1ccn([C@H]2C[C@H](O)[C@@H](CO)O2)c(=O)n1 [Compound 1, deoxycytidine]
- cytotoxic response against A549 cells (in words) ([1]; SRB assay, 72 h, highest concentration tested 100 µg/ml): no cytotoxic response
- MIC [2]: 128 µg/mL (≈ 563 µM)
- MIC [3, 7]: 128 µg/mL (≈ 563 µM)
- MIC [4]: 128 µg/mL (≈ 563 µM)
- MIC [5, 7]: 128 µg/mL (≈ 563 µM)

SMILES: CC(C)CCC[C@@H](C)[C@H]1CC[C@H]2[C@@H]3CC=C4C[C@@H](O)CC[C@]4(C)[C@H]3CC[C@]12C [Compound 9, cholesterol]
- Selectivity Index (SI) [1]: 1.03
- IC50 [1]: 176 ± 5.3 µM
- IC50 at 72 h [6]: 181 ± 8.04 µM
- MIC [2]: 128 µg/mL (≈ 331 µM)
- MIC [3, 7]: 128 µg/mL (≈ 331 µM)
- MIC [4]: 128 µg/mL (≈ 331 µM)
- MIC [5, 7]: 64 µg/mL (≈ 166 µM)

SMILES: CC(C)CCC[C@@H](C)[C@H]1CCC2[C@@]34C=C[C@]5(C[C@@H](O)CC[C@]5(C)C3CC[C@@]21C)OO4 (stereo partly drawn) [Compound 10, 7-dehydrochoresterol peroxide]
- Selectivity Index (SI) [1]: 1.12
- IC50 [1]: 86.1 µM
- IC50 at 72 h [6]: 96.6 ± 4.34 µM
- MIC [2]: 128 µg/mL (≈ 307 µM)
- MIC [3]: 32 µg/mL (≈ 76.8 µM)
- MIC [3, 7]: 32 µg/mL (≈ 76.8 µM)
- MIC [4]: 128 µg/mL (≈ 307 µM)
- MIC [5]: 8 µg/mL (≈ 19.2 µM)
- MIC [5, 7]: 8 µg/mL (≈ 19.2 µM)

SMILES: CC(C)CCC[C@@H](C)[C@H]1CCC2[C@]1(C)CC=C1[C@]23C=C[C@]2(C[C@@H](O)CC[C@]12C)OO3 (stereo partly drawn) [Compound 11, (3β-5α-8α)5,8-epidioxycholesta-6,9(1)-diene-3-ol]
- Selectivity Index (SI) [1]: 1.05
- IC50 [1]: 137 ± 4.4 µM
- IC50 at 72 h [6]: 144 ± 6.15 µM
- MIC [2]: 128 µg/mL (≈ 309 µM)
- MIC [3]: 64 µg/mL (≈ 154 µM)
- MIC [3, 7]: 64 µg/mL (≈ 154 µM)
- MIC [4]: 128 µg/mL (≈ 309 µM)
- MIC [5]: 8 µg/mL (≈ 19.3 µM)
- MIC [5, 7]: 8 µg/mL (≈ 19.3 µM)
